Test results as given in PubChem BioAssay (NCI).
Values joined by “and” are separate entries in the source; they are usually repeats but may differ in a detail not shown here. Equal entries are not always repeated.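 Step 1: Grow cells in 96-well plates. Step 2: Expose to compound for 48 hours at 5 concentrations. Step 3: Interpolate endpoints linearly; if unreached, use highest concentration. At the GI50, growth is halved. TGI marks complete inhibition of growth.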 Numbered stars: 1 amine (or outer) side, 2 acyl side, 3 side chain; on linkers, the order of the positions; unused ones are H or OH. Bridge positions count the residues as written; N and C are the ends. Square brackets hold non-standard residues; d marks the D form. Peptide text beside a SMILES is read from it. I, II: the chains in the order shown. Actinocin(1to9) = Cc1c2oc3c(C)ccc(C(=O)[*:2])c3nc-2c(C(=O)[*:1])c(N)c1=O; NMeV = CN[CH](C(=O)O)C(C)C; Sar = CNCC(=O)O

Experiments:
Test in all cases: NCI tumour cell line growth inhibition, 48 h
BT-549 breast = test system: BT-549 breast
PC-3 prostate = test system: PC-3 prostate
SN12C renal = test system: SN12C renal
HL-60(TB) leukemia = test system: HL-60(TB) leukemia
SK-OV-3 ovarian = test system: SK-OV-3 ovarian
CCRF-CEM leukemia = test system: CCRF-CEM leukemia
OVCAR-8 ovarian = test system: OVCAR-8 ovarian
HCC-2998 colon = test system: HCC-2998 colon
T-47D breast = test system: T-47D breast

SMILES | TGI (BT-549 breast) [µM] | TGI (PC-3 prostate) | TGI (SN12C renal) [µM] | TGI (HL-60(TB) leukemia) [µM] | TGI (SK-OV-3 ovarian) [µM] | TGI (CCRF-CEM leukemia) [µM] | TGI (OVCAR-8 ovarian) | GI50 (CCRF-CEM leukemia) [µM] | GI50 (HCC-2998 colon) [µM] | TGI (HCC-2998 colon) [µM] | GI50 (PC-3 prostate) [µM] | GI50 (SN12C renal) [µM] | GI50 (HL-60(TB) leukemia) [µM] | GI50 (OVCAR-8 ovarian) [µM] | GI50 (SK-OV-3 ovarian) [µM] | GI50 (T-47D breast) [µM] | TGI (T-47D breast)
CCC(C)C1NC(=O)C(NC(=O)c2c3nc4c(C(=O)NC5C(=O)NC(C(C)C)C(=O)N6CCCC6C(=O)N(C)CC(=O)N(C)C(C(C)C)C(=O)OC5C)ccc(C)c4oc-3c(C)c(=O)c2N)C(C)OC(=O)C(C(C)C)N(C)C(=O)CN(C)C(=O)C2CCCN2C1=O (configuration not stated) (I: TIP[Sar][NMeV] / II: TVP[Sar][NMeV]; ester I:1-I:C, II:1-II:C; linker I:N-II:N via Actinocin(1to9); configuration not given here) | 0.0627 | 0.0947 µM and 0.0301 µM | 0.498 | 0.163 | 13.2 | – | – | – | – | – | – | – | – | – | – | – | –
CCCC(=O)Oc1cc(OC(=O)CCC)c2c(C)cc(=O)oc2c1 | – | > 100 µM | > 100 | – | > 100 | > 100 | > 100 µM | – | – | – | – | – | – | – | – | – | –
OCC1(CNc2cc(Cl)ncn2)CCC1 | > 100 | > 100 µM | > 100 | > 100 | – | > 100 | > 100 µM | – | – | – | – | – | – | – | – | – | –
COc1ccc(/C=C/C(=O)/C=C(/C=C/c2ccc(OC)c(OC)c2OC)OB(F)F)c(OC)c1OC | – | > 100 µM | > 100 | 3.96 | > 100 | 2.08 | > 100 µM | 0.366 | 1.94 | 3.93 | 2.82 | 2.01 | 0.469 | 1.16 | 3.77 | 3.62 | > 100 µM
CC1CC/C(=C\c2ccc(F)cc2)C2=C1C(c1ccc(F)cc1)n1c(s/c(=C\c3ccc(Cl)cc3)c1=O)=N2 (configuration not stated) | – | > 100 µM | > 100 | > 100 | > 100 | > 100 | > 100 µM | – | – | – | – | – | – | – | – | – | –
O[C@H]1[C@@H]2OC[C@@H](O)[C@H](OCc3ccccc3)[C@@](COCc3ccccc3)(O2)[C@@H]1OCc1ccccc1 | 32.2 | 28.3 µM | 27.9 | 68.6 | 36.6 | 42.1 | 31 µM | – | – | – | – | – | – | – | – | – | –
CCOC(=O)C(C(=O)OCC)C(NC(=O)Nc1cc(C(F)(F)F)ccc1OC)(C(F)(F)F)C(F)(F)F | – | > 100 µM | 74.2 | 48.9 | > 100 | 70.9 | > 100 µM | – | – | 85 | – | – | – | – | – | – | > 100 µM
CCCCn1c2c(n(CCCC)c1=[Se])-c1c(n(CCCC)c(=[Se])n1CCCC)S[Se][Se]S2 | > 92.5 | 34.7 µM | 65 | – | 58 | 55.6 | 30.5 µM | – | – | > 100 | – | – | – | – | – | – | –
CC(=O)Oc1ccc2c3c1[C@@H]1O[C@@H]1c1cccc(c1-3)[C@@H]1O[C@H]21 | 3.98 | – | – | 4.87 | 9.71 | 3.94 | 2.85 µM | – | – | – | – | – | – | – | – | – | 5.42 µM
OCC(O)C(O)C(C=NNc1ncnc2ccc(Br)cc12)=NNc1ncnc2ccc(Br)cc12 (configuration not stated) | – | 77.4 µM and > 100 µM | > 100 | > 100 | > 100 | – | 46.9 µM and > 100 µM | – | – | – | – | – | – | – | – | – | 16.1 µM and > 100 µM
CC(C)=C=CC(C)(C)NS(=O)(=O)NC(C)(C)C=C=C(C)C | – | > 100 µM | > 100 | > 100 | > 100 | – | > 100 µM | – | – | > 100 | – | – | – | – | – | – | > 100 µM
N#C/C=C\c1ccc(-c2cc(C(F)(F)F)cc(C(F)(F)F)c2)o1 | 76.8 | > 100 µM | > 100 | 41.4 | > 100 | > 100 | 58.5 µM | – | – | > 100 | – | – | – | – | – | – | –
C=[N+](CNC(=O)CNC(=O)C(Cc1ccccc1)NC(=O)OC(C)(C)C)C(=O)CNC(=O)C(Cc1ccccc1)NC(=O)OC(C)(C)C (configuration not stated) | – | > 100 µM | > 100 | – | > 100 | > 100 | > 100 µM | – | – | > 100 | – | – | – | – | – | – | > 100 µM
CCCC(=O)OC1=C(c2ccccc2)Sc2ccccc2-n2cccc21 | – | > 10 µM | > 10 | > 10 | > 10 | > 10 | > 10 µM | – | – | > 10 | – | – | – | – | – | – | > 10 µM
NC(=O)N=Nc1c2ccccc2n2[nH]ccc12 | – | > 100 µM | > 100 | 58.1 | > 100 | > 100 | > 100 µM | – | – | > 100 | – | – | – | – | – | – | 92.9 µM
CC1OC(n2cnc3c(N)nc(Cl)nc32)C(C)(O)C1O (configuration not stated) | > 25 | – | > 25 | > 25 | > 25 | > 25 | > 25 µM | – | – | > 25 | – | – | – | – | – | – | > 25 µM
O=Cc1ccc2[nH]c(=O)oc2c1 | > 100 | > 100 µM | > 100 | > 100 | > 100 | > 100 | > 100 µM | – | – | – | – | – | – | – | – | – | –
CC(C)(C)OC(=O)CC(NC(=O)OC(C)(C)C)C(=O)Oc1ccc([N+](=O)[O-])cc1 (configuration not stated) | > 100 | > 100 µM | > 100 | – | > 100 | > 100 | > 100 µM | – | – | – | – | – | – | – | – | – | > 100 µM
